In patent US7943770B2, “Fused quinoline derivative and use thereof” (Takeda Pharmaceutical Company Limited, priority 2004, dated 2011):

molecular target: T1, hNK2 receptor (Homo sapiens, UniProt P21452); test: Radio-ligand ([125I]-NKA) receptor binding inhibitory activity using membrane fraction of hNK2 receptor-expressing CHO cell; settings: membrane fraction of hNK2 receptor-expressing CHO cells, 25° C., 30 min
T1 construct: host or cells: CHO cells
T1 sequence (P21452 1-398): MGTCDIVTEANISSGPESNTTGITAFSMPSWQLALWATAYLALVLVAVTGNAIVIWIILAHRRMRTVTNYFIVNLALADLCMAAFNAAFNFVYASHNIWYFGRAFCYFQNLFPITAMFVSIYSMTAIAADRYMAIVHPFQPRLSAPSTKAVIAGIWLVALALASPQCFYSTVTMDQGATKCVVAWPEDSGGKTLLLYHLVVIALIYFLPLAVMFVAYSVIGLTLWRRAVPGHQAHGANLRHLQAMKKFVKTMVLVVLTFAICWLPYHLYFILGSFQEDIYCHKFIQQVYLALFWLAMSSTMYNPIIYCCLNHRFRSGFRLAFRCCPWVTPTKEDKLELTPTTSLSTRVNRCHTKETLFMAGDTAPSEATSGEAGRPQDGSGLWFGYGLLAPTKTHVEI
Summary of the method: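 Membranes from hNK2-expressing CHO cells (20 μg/mL suspension) incubated with test compound and [125I]-NKA ([…] solution as added) in Tris-HCl pH 7.4 with BSA, protease inhibitors, 3 mM MnCl2, 25 °C, 30 min. Bound radioactivity by GF/C filtration and scintillation; inhibition expressed relative to specific binding (total minus unlabeled-NKA non-specific).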

| IC50 [nM] | Compound |
| --- | --- |
| < 10 | COC[C@@H]1Nc2ccccc2[C@H]2[C@@H]1CCN2C(=O)[C@H]1CCCC[C@H]1NC(=O)c1ccc(CNC(C)=O)cc1 [Example 263, 4-[(Acetylamino)methyl]-N-((1R,2S)-2-{[(3aR,4R,9bR)-4-(methoxymethyl)-2,3,3a,4,5,9b-hexahydro-1H-pyrrolo[3,2-c]quinolin-1-yl]carbonyl}cyclohexyl)benzamide] |
| < 1 | COC[C@@H]1Nc2ccccc2[C@H]2[C@@H]1CCN2C(=O)[C@H]1CCCC[C@H]1NC(=O)c1ccc(-n2cccn2)cc1 [Example 264, N-((1R,2S)-2-{[(3aR,4R,9bR)-4-(Methoxymethyl)-2,3,3a,4,5,9b-hexahydro-1H-pyrrolo[3,2-c]quinolin-1-yl]carbonyl}cyclohexyl)-4-(1H-pyrazol-1-yl)benzamide] |
| < 1 | COC[C@@H]1Nc2ccccc2[C@H]2[C@@H]1CCN2C(=O)[C@H]1CCCC[C@H]1NC(=O)c1ccc(-n2cncn2)cc1 [Example 265, N-((1R,2S)-2-{[(3aR,4R,9bR)-4-(Methoxymethyl)-2,3,3a,4,5,9b-hexahydro-1H-pyrrolo[3,2-c]quinolin-1-yl]carbonyl}cyclohexyl)-4-(1H-1,2,4-triazol-1-yl)benzamide] |
| < 10 | COC[C@@H]1Nc2ccccc2[C@H]2[C@@H]1CCN2C(=O)[C@H]1CCCC[C@H]1NC(=O)c1ccc(NCCO)cc1 [Example 266, 4-[(2-Hydroxyethyl)amino]-N-((1R,2S)-2-{[(3aR,4R,9bR)-4-(methoxymethyl)-2,3,3a,4,5,9b-hexahydro-1H-pyrrolo[3,2-c]quinolin-1-yl]carbonyl}cyclohexyl)benzamide] |
| < 10 | COC[C@@H]1Nc2ccccc2[C@H]2[C@@H]1CCN2C(=O)[C@H]1CCCC[C@H]1NC(=O)c1ccc(N2CCN(C)CC2)cc1 [Example 267, N-((1R,2S)-2-{[(3aR,4R,9bR)-4-(Methoxymethyl)-2,3,3a,4,5,9b-hexahydro-1H-pyrrolo[3,2-c]quinolin-1-yl]carbonyl}cyclohexyl)-4-(4-methylpiperazin-1-yl)benzamide] |
| < 10 | COC[C@@H]1Nc2ccccc2[C@H]2[C@@H]1CCN2C(=O)[C@H]1CCCC[C@H]1NC(=O)c1ccc(N2CCOCC2)cc1 [Example 268, N-((1R,2S)-2-{[(3aR,4R,9bR)-4-(Methoxymethyl)-2,3,3a,4,5,9b-hexahydro-1H-pyrrolo[3,2-c]quinolin-1-yl]carbonyl}cyclohexyl)-4-morpholin-4-benzamide] |
| < 1 | COC[C@@H]1Nc2ccccc2[C@H]2[C@@H]1CCN2C(=O)[C@H]1CCCC[C@H]1NC(=O)c1ccc2c(c1)OCCN2C [Example 269, N-((1R,2S)-2-{[(3aR,4R,9bR)-4-(Methoxymethyl)-2,3,3a,4,5,9b-hexahydro-1H-pyrrolo[3,2-c]quinolin-1-yl]carbonyl}cyclohexyl)-4-methyl-3,4-dihydro-2H-1,4-benzoxazin-7-carboxamide] |
| < 10 | COC[C@@H]1Nc2ccccc2[C@H]2[C@@H]1CCN2C(=O)[C@H]1CCCC[C@H]1NC(=O)c1ccc(N(C)CCO)cc1 [Example 270, 4-[(2-Hydroxyethyl) (methyl)amino]-N-((1R,2S)-2-{[(3aR,4R,9bR)-4-(methoxymethyl)-2,3,3a,4,5,9b-hexahydro-1H-pyrrolo[3,2-c]quinolin-1-yl]carbonyl}cyclohexyl)benzamide] |
| < 10 | COC[C@@H]1Nc2ccccc2[C@H]2[C@@H]1CCN2C(=O)[C@H]1CCCC[C@H]1NC(=O)c1ccc(-n2ccnc2C)cc1 [Example 271, N-((1R,2S)-2-{[(3aR,4R,9bR)-4-(Methoxymethyl)-2,3,3a,4,5,9b-hexahydro-1H-pyrrolo[3,2-c]quinolin-1-yl]carbonyl}cyclohexyl)-4-(2-methyl-1H-imidazol-1-yl)benzamide] |
| < 1 | COC[C@@H]1Nc2ccccc2[C@H]2[C@@H]1CCN2C(=O)[C@H]1CCCC[C@H]1NC(=O)c1ccc(-n2cnc(C)c2)cc1 [Example 272, N-((1R,2S)-2-{[(3aR,4R,9bR)-4-(Methoxymethyl)-2,3,3a,4,5,9b-hexahydro-1H-pyrrolo[3,2-c]quinolin-1-yl]carbonyl}cyclohexyl)-4-(4-methyl-1H-imidazol-1-yl)benzamide] |
| < 1 | COCCN(C)c1ccc(C(=O)N[C@@H]2CCCC[C@@H]2C(=O)N2CC[C@@H]3[C@H](COC)Nc4ccccc4[C@@H]32)cc1 [Example 273, 4-[(2-Methoxyethyl)(methyl)amino]-N-((1R,2S)-2-{[(3aR,4R,9bR)-4-(methoxymethyl)-2,3,3a,4,5,9b-hexahydro-1H-pyrrolo[3,2-c]quinolin-1-yl]carbonyl}cyclohexyl)benzamide] |
| < 10 | COC[C@@H]1Nc2ccccc2[C@H]2[C@@H]1CCN2C(=O)[C@H]1CCCC[C@H]1NC(=O)c1ccc(C#N)c(OC)c1 [Example 274, 4-Cyano-3-methoxy-N-((1R,2S)-2-{[(3aR,4R,9bR)-4-(methoxymethyl)-2,3,3a,4,5,9b-hexahydro-1H-pyrrolo[3,2-c]quinolin-1-yl]carbonyl}cyclohexyl)benzamide] |

The next lines start with the compound.

| Compound | IC50 [nM] |
| --- | --- |
| COC[C@@H]1Nc2ccccc2[C@H]2[C@@H]1CCN2C(=O)[C@H]1CCCC[C@H]1NC(=O)c1ccc2ccccc2n1 [Example 247, N-((1R,2S)-2-{[(3aR,4R,9bR)-4-(Methoxymethyl)-2,3,3a,4,5,9b-hexahydro-1H-pyrrolo[3,2-c]quinolin-1-yl]carbonyl}cyclohexyl)quinoline-2-carboxamide] | < 10 |
| COC[C@@H]1Nc2ccccc2[C@H]2[C@@H]1CCN2C(=O)[C@H]1CCCC[C@H]1NC(=O)c1ccc2c(c1)CCO2 [Example 248, N-((1R,2S)-2-{[(3aR,4R,9bR)-4-(Methoxymethyl)-2,3,3a,4,5,9b-hexahydro-1H-pyrrolo[3,2-c]quinolin-1-yl]carbonyl}cyclohexyl)-2,3-dihydro-1-benzofuran-5-carboxamide] | < 1 |
| COC[C@@H]1Nc2ccccc2[C@H]2[C@@H]1CCN2C(=O)[C@H]1CCCC[C@H]1NC(=O)c1onc2ccccc12 [Example 249, N-((1R,2S)-2-{[(3aR,4R,9bR)-4-(Methoxymethyl)-2,3,3a,4,5,9b-hexahydro-1H-pyrrolo[3,2-c]quinolin-1-yl]carbonyl}cyclohexyl)-2,1-benzisoxazole-3-carboxamide] | < 10 |
| COC[C@@H]1Nc2ccccc2[C@H]2[C@@H]1CCN2C(=O)[C@H]1CCCC[C@H]1NC(=O)c1ccc(-n2ccnc2)cc1 [Example 250, 4-(1H-Imidazol-1-yl)-N-((1R,2S)-2-{[(3aR,4R,9bR)-4-(methoxymethyl)-2,3,3a,4,5,9b-hexahydro-1H-pyrrolo[3,2-c]quinolin-1-yl]carbonyl}cyclohexyl)benzamide] | < 1 |
| COC[C@@H]1Nc2ccccc2[C@H]2[C@@H]1CCN2C(=O)[C@H]1CCCC[C@H]1NC(=O)c1ccc(N2N=C(C)CC2=O)cc1 [Example 252, N-((1R,2S)-2-{[(3aR,4R,9bR)-4-(Methoxymethyl)-2,3,3a,4,5,9b-hexahydro-1H-pyrrolo[3,2-c]quinolin-1-yl]carbonyl}cyclohexyl)-4-(3-methyl-5-oxo-4,5-dihydro-1H-pyrazol-1-yl)benzamide] | < 1 |
| COC[C@@H]1Nc2ccccc2[C@H]2[C@@H]1CCN2C(=O)[C@H]1CCCC[C@H]1NC(=O)c1ccc2ncsc2c1 [Example 253, N-((1R,2S)-2-{[(3aR,4R,9bR)-4-(Methoxymethyl)-2,3,3a,4,5,9b-hexahydro-1H-pyrrolo[3,2-c]quinolin-1-yl]carbonyl}cyclohexyl)-1,3-benzothiazole-6-carboxamide] | < 10 |
| COC[C@@H]1Nc2ccccc2[C@H]2[C@@H]1CCN2C(=O)[C@H]1CCCC[C@H]1NC(=O)c1ccc(N2CCCCC2)nc1 [Example 254, N-((1R,2S)-2-{[(3aR,4R,9bR)-4-(Methoxymethyl)-2,3,3a,4,5,9b-hexahydro-1H-pyrrolo[3,2-c]quinolin-1-yl]carbonyl}cyclohexyl)-6-piperidin-1-ylnicotinamide] | < 1 |
| COC[C@@H]1Nc2ccccc2[C@H]2[C@@H]1CCN2C(=O)[C@H]1CCCC[C@H]1NC(=O)c1ccc(C#N)c(C)c1 [Example 256, 4-Cyano-N-((1R,2S)-2-{[(3aR,4R,9bR)-4-(methoxymethyl)-2,3,3a,4,5,9b-hexahydro-1H-pyrrolo[3,2-c]quinolin-1-yl]carbonyl}cyclohexyl)-3-methylbenzamide] | < 1 |
| COC[C@@H]1Nc2ccccc2[C@H]2[C@@H]1CCN2C(=O)[C@H]1CCCC[C@H]1NC(=O)c1ccc(-n2cccc2)cc1 [Example 258, N-((1R,2S)-2-{[(3aR,4R,9bR)-4-(Methoxymethyl)-2,3,3a,4,5,9b-hexahydro-1H-pyrrolo[3,2-c]quinolin-1-yl]carbonyl}cyclohexyl)-4-(1H-pyrrol-1-yl)benzamide] | < 1 |
| COC[C@@H]1Nc2ccccc2[C@H]2[C@@H]1CCN2C(=O)[C@H]1CCCC[C@H]1NC(=O)c1ccc2[nH]cnc2c1 [Example 259, N-((1R,2S)-2-{[(3aR,4R,9bR)-4-(Methoxymethyl)-2,3,3a,4,5,9b-hexahydro-1H-pyrrolo[3,2-c]quinolin-1-yl]carbonyl}cyclohexyl)-1H-benzimidazole-5-carboxamide] | < 10 |
| COC[C@@H]1Nc2ccccc2[C@H]2[C@@H]1CCN2C(=O)[C@H]1CCCC[C@H]1NC(=O)c1ccc(-c2csc(C)n2)cc1 [Example 261, N-((1R,2S)-2-{[(3aR,4R,9bR)-4-(Methoxymethyl)-2,3,3a,4,5,9b-hexahydro-1H-pyrrolo[3,2-c]quinolin-1-yl]carbonyl}cyclohexyl)-4-(2-methyl-1,3-thiazol-4-yl)benzamide] | < 1 |
